# Literature values, collected in publication PMC5589927, “Visualization of ligand-induced dopamine D2S and D2L receptor internalization by TIRF microscopy” (Scientific Reports, 2017).
# What was measured:
# D2L receptors = settings: stably transfected CHO cells, ref 46 (Itokawa et al.)
# D2S receptors = settings: stably transfected CHO cells, ref 46 (Itokawa et al.)
structure (smiles),measurement,setting,value
NCCc1ccc(O)c(O)c1 [dopamine],internalization of D2L,D2L receptors; after incubation with agonist,22%
same,half-life of decrease D2L,D2L receptors,33 min
same,surface expressed D2S receptors unavailable for [3H]sulpiride (internalization),D2S receptors; after incubation with agonist,about 44%
same,half-life of decrease D2S,D2S receptors,19 min
